This note sets out measurements from patent publication US20180148429A1 (SELVITA S.A., priority 2015, published 2018).

As a reminder, the IC50 is the concentration at which inhibition is half-maximal.

Test [1] addresses T1, BRK (PTK6 protein tyrosine kinase 6) (Homo sapiens, UniProt Q13882).
T1 construct: purchased Carna Bioscience 08-165
The test is described as follows: BRK (PTK6 protein tyrosine kinase 6) IC50 determination assay (in vitro kinase assay, ADP-Glo Max). It counts as biochemical. The note with it: ATP 1600 uM (Km), Poly(Glu, Tyr) 160 uM, 75 nM PTK6, 45 min, RT. How it is done:
BRK (PTK6 Protein Tyrosine Kinase 6) IC50 Determination Assay
In vitro kinase assay used to determine IC50 values for tested inhibitors is based on a modified ADP-Glo™ Max Assay system (Promega) and consists of two parts:
1. Kinase reaction—performed in optimized conditions. At this step BRK phosphorylates its substrate Poly(Glu, Tyr) sodium salt [Glu:Tyr (4:1)] using ATP as a source of phosphate to produce phosphorylated substrate and ADP. Reaction is performed at Km values for ATP and substrate using optimized buffer composition and time of the reaction. BRK (PTK6 protein tyrosine kinase 6) used in the experiments is commercially available (Carna Bioscience, cat. No. 08-165).
2. Detection of ADP as a product of the reaction using ADP-Glo™ system. This part is conducted by using the commercially available kit ADP-Glo™ Max Assay (Promega, cat. No. V7001) according to manufacturer's instruction. Reproducibility and reliability of this modification is confirmed in an optimization process.
Test compounds are dissolved in DMSO and then transferred to the V-bottom 96-well plate.
Two mixes are prepared on ice: Mix 1—containing appropriate kinase amount in 2× reaction buffer and Mix 2—containing concentrated substrate (Poly(Glu, Tyr) sodium salt) and ATP in MilliQ water. 15 μL per well of Mix 1 is transferred to assay wells of 96-well white plate. Next, 2 μl of 15× concentrated test compound in DMSO is added to Mix 1 for 20 min pre-incubation, followed by addition of Mix 2 (13 μl/well). Total reaction volume is 30 μL per well. Samples are tested in duplicates. Final concentration of DMSO in the reaction is 6.7%. Conditions needed for performing BRK in vitro kinase assay are given below:
This protocol is based on Technical Bulletin, ADP-Glo™ Kinase Assay (Promega) and is adapted to 96-well plate containing 30 μL reaction mixture. 30 μL of ADP-Glo™ Reagent is added to each well of 96-well plate containing 30 μL of reaction mixture. The plate is incubated for 90 minutes on a shaker at RT. 60 μL of ADP-Glo™ Max Detection Solution is added to each well of 96-well plate containing 60 μL of the solution (ratio of kinase reaction volume to ADP-Glo™ Reagent volume to Kinase Detection Solution volume is maintained at […]). Plate is incubated for 40 minutes on a shaker at RT, protected from light. Luminescence is measured in the plate reader Synergy 2 (BioTek). Luminescent readouts for compounds tested in 8 concentrations (routinely from 66.7 μM in 5-fold serial dilution step) in duplicates, as well as for high control (complete reaction mix w/DMSO vehicle control), are first normalized to no-substrate low control by its subtraction. In the next step, % of normalized positive control is calculated for each data point and plotted against test compound concentration:
% of control—percent of positive control normalized to no-substrate negative control Lumcpd—luminescence of test compound Lumneg—luminescence of no-substrate negative control Lumpos—luminescence of positive control
IC50 parameter is determined by the GraphPad Prism 6.0 software using 4-parameter model.
Background: ADP-Glo turns the ADP formed in a reaction into a luminescent signal.

Test [2] deals with T2, Human recombinant His-tagged PFKFB3 (Homo sapiens, UniProt Q16875).
T2 construct: His; made in house
T2 sequence (Q16875 whole entry): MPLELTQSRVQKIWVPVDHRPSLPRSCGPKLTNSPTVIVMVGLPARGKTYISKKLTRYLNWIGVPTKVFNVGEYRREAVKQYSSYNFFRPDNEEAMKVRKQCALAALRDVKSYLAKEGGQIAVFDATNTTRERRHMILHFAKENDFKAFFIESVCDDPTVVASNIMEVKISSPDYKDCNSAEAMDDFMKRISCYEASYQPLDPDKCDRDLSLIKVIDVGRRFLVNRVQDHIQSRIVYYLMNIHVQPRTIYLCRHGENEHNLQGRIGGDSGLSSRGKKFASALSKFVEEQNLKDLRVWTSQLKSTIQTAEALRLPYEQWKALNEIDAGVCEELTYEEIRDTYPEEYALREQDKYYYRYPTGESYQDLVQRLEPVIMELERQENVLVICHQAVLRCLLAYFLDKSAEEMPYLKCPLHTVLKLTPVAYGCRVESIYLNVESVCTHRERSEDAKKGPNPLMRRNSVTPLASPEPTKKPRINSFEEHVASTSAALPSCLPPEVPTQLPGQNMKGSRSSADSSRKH
The test is described as follows: PFKFB3 IC50 determination assay (in vitro kinase assay, modified ADP-Glo system). It counts as biochemical. The note with it: ADP-Glo; ATP 20 μM (Km), fructose-6-phosphate 2 μM (Km), 25 nM PFKFB3, 2 h, rt; read-out: PFKFB3 IC50.

T1 sequence (Q13882 whole entry): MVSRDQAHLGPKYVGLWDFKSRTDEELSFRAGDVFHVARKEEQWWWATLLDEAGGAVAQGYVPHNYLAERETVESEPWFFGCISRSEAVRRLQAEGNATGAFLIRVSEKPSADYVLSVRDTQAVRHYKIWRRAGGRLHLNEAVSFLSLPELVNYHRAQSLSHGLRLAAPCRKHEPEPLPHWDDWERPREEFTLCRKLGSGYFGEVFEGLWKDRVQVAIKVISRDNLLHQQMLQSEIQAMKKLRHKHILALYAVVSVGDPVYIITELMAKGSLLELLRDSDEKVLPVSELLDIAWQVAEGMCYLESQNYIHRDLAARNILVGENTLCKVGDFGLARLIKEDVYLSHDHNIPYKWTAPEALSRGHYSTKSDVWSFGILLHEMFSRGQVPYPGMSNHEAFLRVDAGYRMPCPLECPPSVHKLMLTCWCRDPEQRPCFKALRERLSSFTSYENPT

In the case of `CC(Nc1cc(-c2ccc3ccn(C)c3c2)c2nccnc2c1)c1ccncc1` (stereo not drawn) [compound 4, 8-(1-methyl-1H-indol-6-yl)-N-[1-(pyridin-4-yl)ethyl]quinoxalin-6-amine], the IC50 in test [1] and in test [2] was 1 to 1000 nM in each case.
As to `Cc1coc2ccc(-c3cc(NCc4cncc(-c5cnn(C)c5)c4)cc4nccnc34)cc12` [Example 122], the values for the IC50 in test [1] and in test [2] were 1000 to 10000 nM and 1 to 1000 nM, respectively.
In the same order, the values of `Cn1ccc2ccc(-c3cc(NCc4cncc(N)c4)cc4nccnc34)cc21` [Example 100] are 1 to 1000 nM and 1000 to 10000 nM.
The like results for `Cn1ccc2ccc(-c3cc(NCc4cccnc4)cc4nccnc34)cc21` [compound 10, 8-(1-methyl-1H-indol-6-yl)-N-(pyridin-3-ylmethyl)quinoxalin-6-amine] were, in that order, 1 to 1000 nM and 1 to 1000 nM.
Take `CC(=O)N1CCc2ccc(-c3cc(NC(C)c4cccnc4)cc4nccnc34)cc21` (stereo not drawn) [Example 64]: the IC50 is 1000 to 10000 nM in test [1] and 10000 to 100000 nM in test [2].
As for `COc1ccc(-c2cc(N[C@@H]3CCCc4ccccc43)cc3nccnc23)cc1[N+](=O)[O-]` [compound 25, 8-(4-methoxy-3-nitrophenyl)-N-[(1R)-1,2,3,4-tetrahydronaphthalen-1-yl]quinoxalin-6-amine], the IC50 in test [1] was 10000 to 100000 nM; in test [2], 1000 to 10000 nM.
In the same order, the values of `CC(Nc1cc(-c2ccc3ccn(C)c3c2)c2nccnc2c1)c1cccc(S(N)(=O)=O)c1` (stereo not drawn) [Example 28] are 1 to 1000 nM and 1000 to 10000 nM.
As for `Cn1cc(-c2cncc(CNc3cc(-c4ccc5ccn(C)c5c4)c4nccnc4c3)c2)cn1` [Example 69, 8-(1-Methyl-1H-indol-6-yl)-N-{[5-(1-methyl-1H-pyrazol-4-yl)pyridin-3-yl]methyl}quinoxalin-6-amine], the IC50 in test [1] and in test [2] was 1 to 1000 nM each time.
Regarding “4-{[8-(1-Methyl-1H-indol-6-yl)quinoxalin-6-yl]amino}piperidin-2-one [Example 45]”, the IC50 was in the range of 10000 to 100000 nM in test [1] and 1 to 1000 nM in test [2].
The like results for `Cn1ccc2ccc(-c3cc(NC4CCOCC4)cc4nccnc34)cc21` [Example 66] were, in that order, 1 to 1000 nM and 1 to 1000 nM.
In the same order, the values of `Cn1ccc2ccc(-c3cc(N[C@@H]4CCCc5ccccc54)cc4nccnc34)cc21` [compound 1, 8-(1-methyl-1H-indol-6-yl)-N-[(1R)-1,2,3,4-tetrahydronaphthalen-1-yl]quinoxalin-6-amine] are 1000 to 10000 nM and 1 to 1000 nM.
In the same order, the values of `CC(=O)N1CCCC(C(Nc2cc(-c3ccc4ccn(C)c4c3)c3nccnc3c2)c2cccnc2)C1` (stereo not drawn) [Example 250] are 1 to 1000 nM and 1 to 1000 nM.
Consider `C[C@@H](Nc1cc(-c2ccc3ccn(C)c3c2)c2nccnc2c1)c1cccnc1` [Example 35], for which the IC50 in test [1] is 1000 to 10000 nM; in test [2] it was 1 to 1000 nM.
The like results for `Cc1cnc2c(-c3ccc4ccn(C)c4c3)cc(NC(C)c3cccnc3)cc2n1` (stereo not drawn) [Example 34] were, in that order, 10000 to 100000 nM and 1 to 1000 nM.
For the compound `Cn1nncc1CNc1cc(-c2ccc3ccn(C)c3c2)c2nccnc2c1` [Example 243], the IC50 in test [1] and in test [2] was 1 to 1000 nM each time.
Regarding `CN1CCC(Nc2cc(-c3ccc4ccn(C)c4c3)c3nccnc3c2)CC1=O` (stereo not drawn) [Example 132], the IC50 in test [1] and in test [2] was 1 to 1000 nM each time.
For the compound `CC(Nc1cc(-c2ccc3ccn(C)c3c2)c2nccnc2c1)c1ccccn1` (stereo not drawn) [compound 5, 8-(1-methyl-1H-indol-6-yl)-N-[1-(pyridin-2-yl)ethyl]quinoxalin-6-amine], the IC50 was 1 to 1000 nM in test [1] and 1000 to 10000 nM in test [2].
The like results for `CC(Nc1cc(-c2ccc3c(ccn3C)c2)c2nccnc2c1)c1cccnc1` (stereo not drawn) [Example 82] were, in that order, 1000 to 10000 nM and 10000 to 100000 nM.
In the same order, the values of `CC(Nc1cc(-c2cccc3c2ccn3C)c2nccnc2c1)c1cccnc1` (stereo not drawn) [Example 93] are 1000 to 10000 nM and 1000 to 10000 nM.
Consider `Cn1ccc2ccc(-c3cc(NCc4ccnc(Br)c4)cc4nccnc34)cc21` [Example 137], for which the IC50 in test [1] was in the range of 1 to 1000 nM; in test [2], 1000 to 10000 nM.
Take `Cn1ccc2ccc(-c3cc(NCCc4cccnc4)cc4nccnc34)cc21` [compound 3, 8-(1-methyl-1H-indol-6-yl)-N-[2-(pyridin-3-yl)ethyl]quinoxalin-6-amine]: the IC50 in test [1] was in the range of 1 to 1000 nM; in test [2], 1000 to 10000 nM.
`Cn1ccc2ccc(-c3cc(NC4CCNCC4)cc4nccnc34)cc21` [Example 97]: the IC50 in test [1] and in test [2] was 1000 to 10000 nM throughout.
In the case of `Cn1ccc2ccc(-c3cc(NCc4ccc(C(N)=O)cc4)cc4nccnc34)cc21` [Example 88], the IC50 in test [1] was 1 to 1000 nM; in test [2], 1000 to 10000 nM.
`CN1CC(Nc2cc(-c3ccc4ccn(C)c4c3)c3nccnc3c2)CCC1=O` (stereo not drawn) [Example 133]: the IC50 in test [1] is 1 to 1000 nM; in test [2], 1000 to 10000 nM.
In the same order, the values of `Cn1ccc2ccc(-c3cc(NC4CCCc5ccncc54)cc4nccnc34)cc21` (stereo not drawn) [compound 16, 8-(1-methyl-1H-indol-6-yl)-N-(5,6,7,8-tetrahydroisoquinolin-8-yl)quinoxalin-6-amine] are 1 to 1000 nM and 1 to 1000 nM.
Regarding `Cn1ccc2ccc(-c3cc(NCc4cncc(-c5cnc(N)nc5)c4)cc4nccnc34)cc21` [Example 73], the figures for the IC50 in test [1] and in test [2] were 1 to 1000 nM and 1000 to 10000 nM, respectively.
As for `CC(Nc1cc(Cl)c2nccnc2c1)c1cccnc1` (stereo not drawn) [compound 26, 8-chloro-N-[1-(pyridin-3-yl)ethyl]quinoxalin-6-amine], the results for the IC50 in test [1] and in test [2] were 1000 to 10000 nM and 10000 to 100000 nM, respectively.
In the same order, the values of `CC(=O)N1CCC(C(Nc2cc(-c3ccc4ccn(C)c4c3)c3nccnc3c2)c2cccnc2)CC1` (stereo not drawn) [Example 123] are 1 to 1000 nM and 1 to 1000 nM.
For the compound `Cn1ccc2ccc(-c3cc(NC(C)(C)c4cccnc4)cc4nccnc34)cc21` [Example 81], the IC50 lay within 10000 to 100000 nM in test [1] and 1 to 1000 nM in test [2].
Take `Cn1ccc2ccc(-c3cc(NC4CCCc5ncccc54)cc4nccnc34)cc21` (stereo not drawn) [compound 19, 8-(1-methyl-1H-indol-6-yl)-N-(5,6,7,8-tetrahydroquinolin-5-yl)quinoxalin-6-amine]: the IC50 in test [1] and in test [2] was 1 to 1000 nM in each case.
Take `Cn1ccc2ccc(-c3cc(NCc4cscn4)cc4nccnc34)cc21` [compound 27, 8-(1-methyl-1H-indol-6-yl)-N-(1,3-thiazol-4-ylmethyl)quinoxalin-6-amine]: the half-maximal inhibitory concentration (IC50) fell in the range of 1 to 1000 nM in test [1] and 1000 to 10000 nM in test [2].
With `Cn1ccc2ccc(-c3cc(NCC4COCCN4)cc4nccnc34)cc21` (stereo not drawn) [Example 131], the IC50 in test [1] was 1 to 1000 nM; in test [2] it was 1000 to 10000 nM.
In the same order, the values of `COc1cc(-c2cc(N[C@@H]3CCCc4ccccc43)cc3nccnc23)ccc1N` [compound 12, 8-(4-amino-3-methoxyphenyl)-N-[(1R)-1,2,3,4-tetrahydronaphthalen-1-yl]quinoxalin-6-amine] are 1000 to 10000 nM and 1000 to 10000 nM.
In the same order, the values of `Cn1ccc2ccc(-c3cc(NC4CCOc5ccccc54)cc4nccnc34)cc21` (stereo not drawn) [compound 14, N-(3,4-dihydro-2H-1-benzopyran-4-yl)-8-(1-methyl-1H-indol-6-yl)quinoxalin-6-amine] are 1000 to 10000 nM and 1 to 1000 nM.
In the same order, the values of `COc1ccc(C(C)Nc2cc(-c3ccc4ccn(C)c4c3)c3nccnc3c2)cc1` (stereo not drawn) [compound 15, N-[1-(4-methoxyphenyl)ethyl]-8-(1-methyl-1H-indol-6-yl)quinoxalin-6-amine] are 1000 to 10000 nM and 1000 to 10000 nM.
Turning to `CC(=O)N1CCCCC1CNc1cc(-c2ccc3c(ccn3C)c2)c2nccnc2c1` (stereo not drawn) [Example 120], the IC50 is 1000 to 10000 nM in test [1] and 10000 to 100000 nM in test [2].
